Reference: ChEMBL document CHEMBL4017443, “(-)-UB006: A new fatty acid synthase inhibitor and cytotoxic agent without anorexic side effects” (Eur J Med Chem, 2017)
Calls of active or inactive are those of the source. No cut-off for these calls is given here.

How the values were obtained:
SK-BR-3 = experiment: Antiproliferative activity against human SKBR3 cells after 72 hrs by MTT assay; type: functional, cell-based; conditions: SK-BR-3, 72 h
Fatty acid synthase = Fatty acid synthase (Rattus norvegicus, UniProt P12785); experiment: Inhibition of fatty acid synthase in rat cytosolic hepatic extracts using acetyl CoA and malonyl CoA as substrate preincubated for 30 mins followed by acetyl CoA addition and subsequent incubation for 3 mins prior to malonyl CoA addition measured after 10 mins in presence of NADPH by spectrophotometric method
Sequence of Fatty acid synthase (P12785 whole entry): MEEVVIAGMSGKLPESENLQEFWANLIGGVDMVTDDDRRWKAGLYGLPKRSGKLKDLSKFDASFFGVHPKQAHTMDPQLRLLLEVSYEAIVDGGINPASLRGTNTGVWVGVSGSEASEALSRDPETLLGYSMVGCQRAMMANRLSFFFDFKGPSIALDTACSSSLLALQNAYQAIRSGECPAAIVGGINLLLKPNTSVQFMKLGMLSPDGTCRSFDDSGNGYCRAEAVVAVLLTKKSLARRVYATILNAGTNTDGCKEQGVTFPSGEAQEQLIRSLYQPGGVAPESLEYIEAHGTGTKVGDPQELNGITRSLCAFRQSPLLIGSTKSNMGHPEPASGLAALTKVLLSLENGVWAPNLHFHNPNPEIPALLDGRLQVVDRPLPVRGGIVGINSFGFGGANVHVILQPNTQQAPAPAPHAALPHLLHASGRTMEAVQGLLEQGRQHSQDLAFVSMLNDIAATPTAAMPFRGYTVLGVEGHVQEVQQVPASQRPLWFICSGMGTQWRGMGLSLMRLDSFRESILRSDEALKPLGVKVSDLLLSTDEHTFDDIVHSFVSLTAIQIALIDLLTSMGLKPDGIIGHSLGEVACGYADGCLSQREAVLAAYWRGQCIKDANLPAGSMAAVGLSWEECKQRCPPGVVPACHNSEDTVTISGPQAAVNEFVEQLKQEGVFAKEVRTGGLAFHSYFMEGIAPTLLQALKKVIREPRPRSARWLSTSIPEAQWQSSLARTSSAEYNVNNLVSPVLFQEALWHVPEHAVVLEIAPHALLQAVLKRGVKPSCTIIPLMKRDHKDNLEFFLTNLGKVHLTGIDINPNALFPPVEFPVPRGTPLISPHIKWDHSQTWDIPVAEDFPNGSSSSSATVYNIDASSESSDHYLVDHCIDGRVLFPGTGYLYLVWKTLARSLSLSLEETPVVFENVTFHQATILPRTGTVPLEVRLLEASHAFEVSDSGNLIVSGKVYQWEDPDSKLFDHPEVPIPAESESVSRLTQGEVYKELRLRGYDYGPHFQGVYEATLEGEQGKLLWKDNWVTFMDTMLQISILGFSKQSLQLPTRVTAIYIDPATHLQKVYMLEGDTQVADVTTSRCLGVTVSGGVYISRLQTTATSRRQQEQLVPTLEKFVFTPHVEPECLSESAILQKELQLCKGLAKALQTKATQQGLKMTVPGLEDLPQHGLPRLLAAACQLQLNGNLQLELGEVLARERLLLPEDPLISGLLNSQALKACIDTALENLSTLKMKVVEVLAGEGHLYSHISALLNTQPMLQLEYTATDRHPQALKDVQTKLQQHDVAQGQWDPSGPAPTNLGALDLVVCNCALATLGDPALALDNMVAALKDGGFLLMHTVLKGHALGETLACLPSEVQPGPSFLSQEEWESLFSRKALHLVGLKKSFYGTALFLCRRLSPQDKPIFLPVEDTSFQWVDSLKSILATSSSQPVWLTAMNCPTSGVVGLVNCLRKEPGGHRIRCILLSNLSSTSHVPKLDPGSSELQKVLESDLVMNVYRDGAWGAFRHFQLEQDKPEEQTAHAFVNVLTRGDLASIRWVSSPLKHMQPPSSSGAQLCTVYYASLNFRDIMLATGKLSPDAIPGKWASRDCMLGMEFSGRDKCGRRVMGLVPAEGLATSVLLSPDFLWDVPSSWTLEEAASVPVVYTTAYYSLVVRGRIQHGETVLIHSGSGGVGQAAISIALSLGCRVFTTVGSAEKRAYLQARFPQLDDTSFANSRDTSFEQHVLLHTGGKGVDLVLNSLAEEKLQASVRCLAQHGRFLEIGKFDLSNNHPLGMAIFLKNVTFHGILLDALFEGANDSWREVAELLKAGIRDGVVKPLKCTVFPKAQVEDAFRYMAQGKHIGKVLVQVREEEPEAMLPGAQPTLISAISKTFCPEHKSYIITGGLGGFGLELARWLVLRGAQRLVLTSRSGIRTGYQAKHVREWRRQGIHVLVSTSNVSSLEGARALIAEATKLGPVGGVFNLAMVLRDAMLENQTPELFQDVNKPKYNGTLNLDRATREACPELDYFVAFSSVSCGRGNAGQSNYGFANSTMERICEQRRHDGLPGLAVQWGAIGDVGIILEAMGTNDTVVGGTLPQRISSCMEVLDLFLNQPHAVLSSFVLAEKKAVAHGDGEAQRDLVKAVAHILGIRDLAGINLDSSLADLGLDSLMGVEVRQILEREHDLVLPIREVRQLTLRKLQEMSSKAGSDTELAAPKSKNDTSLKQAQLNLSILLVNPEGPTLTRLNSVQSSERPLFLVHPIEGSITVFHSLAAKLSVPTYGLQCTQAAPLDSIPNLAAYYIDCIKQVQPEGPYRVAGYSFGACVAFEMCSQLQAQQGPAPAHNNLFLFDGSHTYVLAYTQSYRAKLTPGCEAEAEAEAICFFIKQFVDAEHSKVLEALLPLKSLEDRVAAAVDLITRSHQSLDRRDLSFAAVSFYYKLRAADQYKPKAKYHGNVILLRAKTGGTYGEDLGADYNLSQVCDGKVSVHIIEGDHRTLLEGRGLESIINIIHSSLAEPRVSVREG

OVCAR-3 = experiment: Antiproliferative activity against human OVCAR3 cells after 72 hrs by MTT assay; type: functional, cell-based; conditions: OVCAR-3, 72 h
HCT-116 = experiment: Antiproliferative activity against human HCT116 cells after 72 hrs by MTT assay; type: functional, cell-based; conditions: HCT-116, 72 h
MIA PaCa-2 = experiment: Antiproliferative activity against human MIAPaCa2 cells after 72 hrs by MTT assay; type: functional, cell-based; conditions: MIA PaCa-2, 72 h
PC-3 = experiment: Antiproliferative activity against human PC3 cells after 72 hrs by MTT assay; type: functional, cell-based; conditions: PC-3, 72 h
MDA-MB-231 = experiment: Antiproliferative activity against human MDA-MB-231 cells after 72 hrs by MTT assay; type: functional, cell-based; conditions: MDA-MB-231, 72 h
Fibroblast = experiment: Antiproliferative activity against fibroblasts (unknown origin) after 72 hrs by MTT assay; type: cell-based
MCF7 = experiment: cells; conditions: Homo sapiens, MCF7, 72 h
[1] = molecular target: Ribosomal protein S6 kinase beta-1 (Homo sapiens) (UniProt P23443); experiment: Inhibition of S6K1 phosphorylation at T389 in human OVCAR3 cells at 29.74 uM after 24 hrs by Western blot analysis; type: cell-based
[2] = molecular target: T1, Carnitine O-palmitoyltransferase 1, liver isoform (Rattus norvegicus, UniProt P32198); experiment: Inhibition of rat wild-type CPT1A expressed in yeast mitochondrial extracts using L-[methyl-3H]carnitine and palmitoyl-CoA as substrates preincubated for 1 min followed by substrate addition measured for 5 mins by radiometric method
T1 sequence (P32198 whole entry): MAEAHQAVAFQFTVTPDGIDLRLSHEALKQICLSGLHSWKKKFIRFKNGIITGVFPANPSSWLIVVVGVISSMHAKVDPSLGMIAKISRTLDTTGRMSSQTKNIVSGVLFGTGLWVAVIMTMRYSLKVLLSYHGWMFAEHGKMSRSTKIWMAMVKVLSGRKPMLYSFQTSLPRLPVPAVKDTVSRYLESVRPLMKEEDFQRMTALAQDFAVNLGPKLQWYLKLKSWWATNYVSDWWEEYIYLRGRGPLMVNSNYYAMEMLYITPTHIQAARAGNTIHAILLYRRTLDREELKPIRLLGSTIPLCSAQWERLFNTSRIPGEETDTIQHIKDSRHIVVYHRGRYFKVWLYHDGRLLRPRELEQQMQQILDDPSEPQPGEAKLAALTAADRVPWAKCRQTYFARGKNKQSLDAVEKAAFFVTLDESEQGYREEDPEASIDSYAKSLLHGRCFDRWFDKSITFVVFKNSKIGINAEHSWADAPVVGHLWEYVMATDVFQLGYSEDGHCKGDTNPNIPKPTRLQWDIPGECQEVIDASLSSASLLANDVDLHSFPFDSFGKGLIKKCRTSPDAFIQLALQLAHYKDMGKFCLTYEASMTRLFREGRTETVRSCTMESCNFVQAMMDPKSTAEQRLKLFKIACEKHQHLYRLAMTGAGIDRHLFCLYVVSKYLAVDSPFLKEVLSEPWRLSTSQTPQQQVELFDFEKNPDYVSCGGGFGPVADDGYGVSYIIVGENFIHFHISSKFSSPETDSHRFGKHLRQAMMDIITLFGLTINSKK

Mus musculus [3] = experiment: Toxicity in ip dosed C57/BL6J mouse assessed as decrease in body weight; type: organism-based; conditions: in vivo
Rattus norvegicus [4] = experiment: Toxicity in icv dosed Sprague-Dawley rats assessed as decrease in body weight; type: organism-based; conditions: in vivo, icv_or_intrathecal
Rattus norvegicus [5] = experiment: Toxicity in Sprague-Dawley rats assessed as decrease in body weight at 33 mM, icv measured every day for 3 days; conditions: in vivo, icv_or_intrathecal, 72 h, 33000 µM
Rattus norvegicus [6] = experiment: Toxicity in Sprague-Dawley rats assessed as decrease in food intake at 30 mM, icv measured after 1 to 22 hrs; conditions: in vivo, icv_or_intrathecal, 30000 µM
Mus musculus [7] = experiment: Toxicity in C57/BL6J mouse assessed as decrease in body weight at 15 mg/kg, ip administered once daily for 3 days measured after 2 days; type: organism-based; conditions: in vivo, 48 h
Mus musculus [8] = experiment: Toxicity in C57/BL6J mouse assessed as decrease in food intake at 15 mg/kg, ip administered once daily for 3 days measured after 2 days; type: organism-based; conditions: in vivo, 48 h
[9] = molecular target: Fatty acid synthase (Homo sapiens) (UniProt P49327); conditions: 8 ug/ml
Sequence of Fatty acid synthase (Homo sapiens) (P49327 whole entry, looked up): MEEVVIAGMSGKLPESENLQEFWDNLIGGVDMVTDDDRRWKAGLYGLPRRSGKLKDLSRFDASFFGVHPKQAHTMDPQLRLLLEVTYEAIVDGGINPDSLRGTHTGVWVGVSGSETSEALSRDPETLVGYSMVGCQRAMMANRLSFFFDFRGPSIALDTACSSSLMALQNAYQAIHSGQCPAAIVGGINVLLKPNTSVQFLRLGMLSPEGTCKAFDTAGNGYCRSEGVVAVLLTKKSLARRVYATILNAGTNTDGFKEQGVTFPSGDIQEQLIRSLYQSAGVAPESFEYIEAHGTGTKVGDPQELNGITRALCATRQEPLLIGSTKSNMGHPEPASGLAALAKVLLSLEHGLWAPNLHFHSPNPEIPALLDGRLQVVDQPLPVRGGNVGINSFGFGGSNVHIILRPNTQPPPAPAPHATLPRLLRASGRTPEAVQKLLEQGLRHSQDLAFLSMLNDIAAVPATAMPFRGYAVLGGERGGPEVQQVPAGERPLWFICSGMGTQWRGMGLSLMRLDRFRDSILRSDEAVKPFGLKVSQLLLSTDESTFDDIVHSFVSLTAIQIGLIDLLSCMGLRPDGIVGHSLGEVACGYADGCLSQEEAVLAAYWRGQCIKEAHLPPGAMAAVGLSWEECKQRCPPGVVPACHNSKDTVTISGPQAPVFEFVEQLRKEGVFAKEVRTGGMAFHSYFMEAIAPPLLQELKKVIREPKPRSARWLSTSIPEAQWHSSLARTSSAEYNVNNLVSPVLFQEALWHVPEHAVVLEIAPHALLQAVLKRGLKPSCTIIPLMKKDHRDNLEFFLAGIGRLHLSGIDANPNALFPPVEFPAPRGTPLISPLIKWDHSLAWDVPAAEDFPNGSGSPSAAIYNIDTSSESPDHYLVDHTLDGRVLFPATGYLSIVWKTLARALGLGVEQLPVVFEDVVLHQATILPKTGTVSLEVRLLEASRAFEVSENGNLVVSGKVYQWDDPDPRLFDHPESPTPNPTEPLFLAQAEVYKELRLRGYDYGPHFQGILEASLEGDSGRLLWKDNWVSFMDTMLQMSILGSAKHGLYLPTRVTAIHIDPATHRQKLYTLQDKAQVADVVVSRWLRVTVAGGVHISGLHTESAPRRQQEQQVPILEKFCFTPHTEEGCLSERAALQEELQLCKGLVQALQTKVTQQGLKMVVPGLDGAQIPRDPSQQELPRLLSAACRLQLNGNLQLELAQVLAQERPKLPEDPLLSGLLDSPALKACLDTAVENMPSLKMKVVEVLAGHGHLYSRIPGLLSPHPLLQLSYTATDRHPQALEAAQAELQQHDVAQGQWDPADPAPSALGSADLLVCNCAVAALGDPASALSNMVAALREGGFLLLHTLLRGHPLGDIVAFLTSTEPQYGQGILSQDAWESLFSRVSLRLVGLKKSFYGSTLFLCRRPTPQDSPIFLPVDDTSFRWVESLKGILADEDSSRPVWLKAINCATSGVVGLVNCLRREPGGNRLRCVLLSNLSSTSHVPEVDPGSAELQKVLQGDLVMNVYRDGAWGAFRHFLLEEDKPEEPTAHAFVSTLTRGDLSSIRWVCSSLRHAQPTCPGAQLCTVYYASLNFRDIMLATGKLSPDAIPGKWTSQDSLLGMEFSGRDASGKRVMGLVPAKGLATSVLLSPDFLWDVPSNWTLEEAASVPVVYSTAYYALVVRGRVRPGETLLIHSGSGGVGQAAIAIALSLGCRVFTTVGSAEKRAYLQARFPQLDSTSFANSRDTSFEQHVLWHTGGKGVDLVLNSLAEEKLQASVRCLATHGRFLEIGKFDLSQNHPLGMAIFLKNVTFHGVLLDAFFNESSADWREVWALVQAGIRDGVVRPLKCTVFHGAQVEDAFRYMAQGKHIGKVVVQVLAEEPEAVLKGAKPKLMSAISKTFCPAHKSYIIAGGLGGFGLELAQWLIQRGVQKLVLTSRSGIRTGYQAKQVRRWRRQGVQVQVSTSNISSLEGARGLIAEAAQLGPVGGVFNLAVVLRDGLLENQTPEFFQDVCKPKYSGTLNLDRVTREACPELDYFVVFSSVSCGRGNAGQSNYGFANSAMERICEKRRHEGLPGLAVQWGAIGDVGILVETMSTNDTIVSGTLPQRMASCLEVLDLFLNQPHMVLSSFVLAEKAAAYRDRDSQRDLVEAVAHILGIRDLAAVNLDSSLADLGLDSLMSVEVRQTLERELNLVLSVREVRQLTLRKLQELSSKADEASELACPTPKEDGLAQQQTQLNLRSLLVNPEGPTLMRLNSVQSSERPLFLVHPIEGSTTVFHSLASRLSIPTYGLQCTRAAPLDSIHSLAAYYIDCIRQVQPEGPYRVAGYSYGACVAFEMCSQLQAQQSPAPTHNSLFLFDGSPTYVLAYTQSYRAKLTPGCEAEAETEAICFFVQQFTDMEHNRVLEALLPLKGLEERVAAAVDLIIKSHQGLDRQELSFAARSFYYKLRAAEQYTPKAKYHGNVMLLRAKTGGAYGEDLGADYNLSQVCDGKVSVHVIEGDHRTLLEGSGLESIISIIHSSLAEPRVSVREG
Description: Inhibition of fatty acid synthase in human OVCAR3 cells assessed as reduction in fatty acid synthesis at 8 ug/ml pretreated for 2 hrs followed by [U14C]-acetate addition measured after 2 hrs by scintillation counting method relative to control

Compound	IC50 (SK-BR-3)	IC50 (OVCAR-3)	IC50 (HCT-116)	IC50 (MIA PaCa-2)	IC50 (PC-3)	IC50 (MDA-MB-231)	IC50 (Fibroblast)	IC50 (MCF7)	IC50 [2]	other results
C=C1C(=O)O[C@@H](CCCCCCCC)[C@@H]1C(=O)O	38.2 µM	17.9 µM	74.8 µM	25.3 µM	34.3 µM	57.7 µM	> 117 µM	46.4 µM		IC50 (Fatty acid synthase): 440 to 498 µM
C=C1C(=O)O[C@@H](CCCCCCCC)[C@@H]1CO										inhibition [1]: Active
CCCCCCCCC1OC(=O)C(CSCCNC(=O)CCNC(=O)[C@H](O)C(C)(C)COP(=O)(O)OP(=O)(O)OC[C@H]2O[C@@H](n3cnc4c(N)ncnc43)[C@H](O)[C@@H]2OP(=O)(O)O)C1CO (mixture of isomers)									15.7 µM	Activity (Mus musculus [3]): Non-Toxic; Activity (Rattus norvegicus [4]): Non-Toxic
CCCCCCCCC1OC(=O)C(CSCCNC(=O)CCNC(=O)[C@H](O)C(C)(C)COP(=O)(O)OP(=O)(O)OC[C@H]2O[C@@H](n3cnc4c(N)ncnc43)[C@H](O)[C@@H]2OP(=O)(O)O)C1C(=O)O (mixture of isomers)									1.1 µM	
C=C1C(=O)OC(CCCCCCCC)C1C(=O)O (racemic)	19.8 µM	21.9 µM	46.4 µM	21.8 µM	26.8 µM	43.8 µM	63.2 µM	27.3 µM		Activity (Rattus norvegicus [5]): Toxic; Activity (Rattus norvegicus [6]): Toxic; Activity (Mus musculus [7]): Toxic; Activity (Mus musculus [8]): Toxic; inhibition [9]: 38%
